Patent publication US10253081B2, “Glucagon analogues” (Zealand Pharma A/S, priority 2012, dated 2019)
“And” between values parts separate entries of the source, which are not always exact repeats. Equal entries are not always repeated. *1 amine or outer side, *2 acyl side, *3 side chain or, on linkers, in order; H or OH if unused. Where a SMILES comes first, the peptide text is derived from it. Side-chain parts run from the residue outwards. [ ]: non-standard residue; d: D form. The star is where a group is joined. γGlu = O=C(O)[C@H](CCC(=O)[*:2])N[*:1]; Palmitoyl = CCCCCCCCCCCCCCCC(=O)*; Aib = CC(C)(N)C(=O)O

Tests used:
[1] = target: T1, endogenous GLP-1 receptors (Mus musculus, UniProt O35659); test: Agonistic activity on endogenous GLP-1 receptor (cAMP, murine insulinoma cell line); assay type: cell-based; details: intracellular cAMP, 15 minutes at 26° C.; read-out: EC50 GLP-1R (murine insulinoma cells)
T1 construct: Agonistic activity of the test compounds on endogenous GLP-1 receptors; endogenous in cells
T1 sequence (O35659 22-463): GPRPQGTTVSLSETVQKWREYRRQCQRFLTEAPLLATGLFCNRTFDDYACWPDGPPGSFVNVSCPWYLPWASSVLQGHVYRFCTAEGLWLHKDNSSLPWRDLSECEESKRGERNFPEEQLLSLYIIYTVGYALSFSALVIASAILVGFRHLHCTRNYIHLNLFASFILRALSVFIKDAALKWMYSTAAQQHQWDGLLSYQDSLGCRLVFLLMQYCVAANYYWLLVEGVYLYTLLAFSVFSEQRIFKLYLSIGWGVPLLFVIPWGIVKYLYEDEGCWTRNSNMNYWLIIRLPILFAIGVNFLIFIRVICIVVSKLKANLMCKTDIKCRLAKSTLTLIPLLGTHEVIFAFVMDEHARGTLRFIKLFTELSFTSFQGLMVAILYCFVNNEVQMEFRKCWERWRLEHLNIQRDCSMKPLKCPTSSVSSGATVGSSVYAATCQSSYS
Summary of the method: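 Murine insulinoma cells were exposed 15 min at 26° C in KRBH with 0.1% DMSO to compound or GLP-1 ([…]), then cAMP was measured by AlphaScreen against a standard curve, in quadruplicate. pEC50 came from curve fits; % CTL was normalised to the maximal GLP-1 cAMP response.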

[2] = target: T2, endogenous glucagon receptor (Rattus norvegicus, UniProt P30082); test: Agonistic activity on endogenous glucagon receptor (glycogen synthesis rate in primary rat hepatocytes); assay type: cell-based; details: inhibition of glycogen synthesis rate, 3 hours, read-out: EC50 GLP-1R Rat hepat.
T2 construct: Agonistic activity of the test compounds on endogenous glucagon receptor; endogenous in cells; host or cells: primary rat hepatocytes
T2 sequence (P30082 27-485): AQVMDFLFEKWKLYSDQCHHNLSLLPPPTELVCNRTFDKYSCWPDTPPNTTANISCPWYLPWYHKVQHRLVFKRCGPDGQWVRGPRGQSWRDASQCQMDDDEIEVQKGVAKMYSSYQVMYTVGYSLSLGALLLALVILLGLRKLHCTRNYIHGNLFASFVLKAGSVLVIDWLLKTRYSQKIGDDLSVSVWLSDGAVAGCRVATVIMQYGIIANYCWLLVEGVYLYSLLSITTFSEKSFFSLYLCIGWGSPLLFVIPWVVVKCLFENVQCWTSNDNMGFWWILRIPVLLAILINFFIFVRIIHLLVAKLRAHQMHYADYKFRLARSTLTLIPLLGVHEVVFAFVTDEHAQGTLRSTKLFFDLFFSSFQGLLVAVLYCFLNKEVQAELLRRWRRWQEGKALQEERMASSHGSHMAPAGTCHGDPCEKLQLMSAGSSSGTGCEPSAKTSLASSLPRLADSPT
Summary of the method: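 Primary rat hepatocytes (40,000 cells/well, cultured 24 h) incubated 3 h with compound in KRBH buffer with 0.1% BSA, 22.5 mM glucose and D-[U14C]glucose. 14C incorporated into precipitated glycogen counted, background-subtracted and expressed as % of 0.1% DMSO vehicle (100% CTL). pEC50 from cpm versus log concentration; agonism lowers glycogen synthesis.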

[3] = Oral glucose tolerance test (OGTT); assay type: in vivo, C57BL/6J mice; details: blood glucose AUC 0-120 min, 10 nmol/kg s.c. 4 h before oral glucose 2 g/kg
Experimental: Male C57BL/6J mice were fasted for 10 h before they received an oral glucose bolus of 2 g/kg body weight. Peptides were dissolved in saline buffered with 25 mM phosphate and administered at a dose of 10 nmol/kg body weight by subcutaneous injection 4 h before the glucose bolus. Control animals received a vehicle injection only. Group size was 7 animals per group. A pre-dose and a pre-glucose (0 min) blood sample were obtained by tail bleeding and blood glucose was measured with a glucometer. Additional samples of tail blood for measuring blood glucose were obtained 15 min, 30 min, 60 min, 90 min and 120 min after the glucose challenge. […] Calculation of AUC was done by the trapezoidal rule without baseline correction. The data are presented as mean±S.E.M. Statistical comparisons were conducted by one-way ANOVA followed by Tukey's post test. Vehicle alone was used as a control.

Q: With `CCCCCCCCCCCCCCCC(=O)N[C@@H](CCC(=O)NCCCC[C@H](NC(=O)[C@H](CO)NC(=O)[C@H](CC(=O)O)NC(=O)[C@H](CC(C)C)NC(=O)[C@H](Cc1ccc(O)cc1)NC(=O)[C@H](CCCCN)NC(=O)[C@H](CO)NC(=O)[C@H](Cc1ccc(O)cc1)NC(=O)[C@H](CC(=O)O)NC(=O)[C@H](CO)NC(=O)[C@@H](NC(=O)[C@H](Cc1ccccc1)NC(=O)[C@@H](NC(=O)CNC(=O)[C@H](CCC(N)=O)NC(=O)C(C)(C)NC(=O)[C@@H](N)Cc1c[nH]cn1)[C@@H](C)O)[C@@H](C)O)C(=O)N[C@@H](C)C(=O)N[C@@H](C)C(=O)N[C@@H](Cc1c[nH]cn1)C(=O)N[C@@H](CC(=O)O)C(=O)N[C@@H](Cc1ccccc1)C(=O)N[C@H](C(=O)N[C@@H](CCC(=O)O)C(=O)N[C@@H](Cc1c[nH]c2ccccc12)C(=O)N[C@@H](CC(C)C)C(=O)N[C@@H](CC(C)C)C(=O)N[C@@H](CO)C(=O)O)C(C)C)C(=O)O` [Compound 1, H-H-Aib-QGTFTSDYSKYLDS-K(Hexadecanoyl-isoGlu)-AAHDFVEWLLS-OH] (H-H[Aib]QGTFTSDYSKYLDSK([γGlu-Palmitoyl])AAHDFVEWLLS-OH) as the compound, how does the EC50 [1] read?
A: 1.47 nM

Q: What about the EC50 [2] of the same compound?
A: 0.13 nM and 0.02 nM

Q: And the “AUC (% Ctrl)” value [3]?
A: 66 % Ctrl

Q: What does the source list for `CCCCCCCCCCCCCCCC(=O)N[C@@H](CCC(=O)NCCCC[C@H](NC(=O)[C@H](CO)NC(=O)[C@H](CC(=O)O)NC(=O)[C@H](CC(C)C)NC(=O)[C@H](Cc1ccc(O)cc1)NC(=O)[C@H](CCCCN)NC(=O)[C@H](CO)NC(=O)[C@H](Cc1ccc(O)cc1)NC(=O)[C@H](CC(=O)O)NC(=O)[C@H](CO)NC(=O)[C@@H](NC(=O)[C@H](Cc1ccccc1)NC(=O)[C@@H](NC(=O)CNC(=O)[C@H](CCC(N)=O)NC(=O)[C@H](CO)NC(=O)[C@@H](N)Cc1c[nH]cn1)[C@@H](C)O)[C@@H](C)O)C(=O)N[C@@H](C)C(=O)N[C@@H](C)C(=O)N[C@@H](Cc1c[nH]cn1)C(=O)N[C@@H](CC(=O)O)C(=O)N[C@@H](Cc1ccccc1)C(=O)N[C@H](C(=O)N[C@@H](CCC(=O)O)C(=O)N[C@@H](Cc1c[nH]c2ccccc12)C(=O)N[C@@H](CC(C)C)C(=O)N[C@@H](CC(C)C)C(=O)N[C@@H](CO)C(=O)N[C@@H](C)C(=O)O)C(C)C)C(=O)O` [Compound 2, H-HSQGTFTSDYSKYLDS-K(Hexadecanoyl-isoGlu)-AAHDFVEWLLSA-OH] (H-HSQGTFTSDYSKYLDSK([γGlu-Palmitoyl])AAHDFVEWLLSA-OH)?
A: EC50 [1]: 1.41 nM; EC50 [2]: 0.43 nM; AUC (% Ctrl) [3]: 66 % Ctrl

Q: What does the source list for `CCCCCCCCCCCCCCCC(=O)N[C@@H](CCC(=O)NCCCC[C@H](NC(=O)[C@H](CO)NC(=O)[C@H](CC(=O)O)NC(=O)[C@H](CC(C)C)NC(=O)[C@H](Cc1ccc(O)cc1)NC(=O)[C@H](CCCCN)NC(=O)[C@H](CO)NC(=O)[C@H](Cc1ccc(O)cc1)NC(=O)[C@H](CC(=O)O)NC(=O)[C@H](CO)NC(=O)[C@@H](NC(=O)[C@H](Cc1ccccc1)NC(=O)[C@@H](NC(=O)CNC(=O)[C@H](CCC(N)=O)NC(=O)[C@H](CO)NC(=O)[C@@H](N)Cc1c[nH]cn1)[C@@H](C)O)[C@@H](C)O)C(=O)N[C@@H](C)C(=O)N[C@@H](C)C(=O)N[C@@H](Cc1c[nH]cn1)C(=O)N[C@@H](CC(=O)O)C(=O)N[C@@H](Cc1ccccc1)C(=O)N[C@H](C(=O)N[C@@H](CCC(=O)O)C(=O)N[C@@H](Cc1c[nH]c2ccccc12)C(=O)N[C@@H](CC(C)C)C(=O)N[C@@H](CC(C)C)C(=O)N[C@@H](CCCNC(=N)N)C(=O)N[C@@H](C)C(=O)O)C(C)C)C(=O)O` [Compound 3, H-HSQGTFTSDYSKYLDS-K(Hexadecanoyl-isoGlu)-AAHDFVEWLLRA-OH] (H-HSQGTFTSDYSKYLDSK([γGlu-Palmitoyl])AAHDFVEWLLRA-OH)?
A: EC50 [1]: 1.06 nM; EC50 [2]: 0.16 nM; AUC (% Ctrl) [3]: 70 % Ctrl

Q: With `CCCCCCCCCCCCCCCC(=O)N[C@@H](CCC(=O)NCCCC[C@H](NC(=O)[C@H](CCC(=O)O)NC(=O)[C@H](CC(=O)O)NC(=O)[C@H](CC(C)C)NC(=O)[C@H](Cc1ccc(O)cc1)NC(=O)[C@H](CCCCN)NC(=O)[C@H](CO)NC(=O)[C@H](Cc1ccc(O)cc1)NC(=O)[C@H](CC(=O)O)NC(=O)[C@H](CO)NC(=O)[C@@H](NC(=O)[C@H](Cc1ccccc1)NC(=O)[C@@H](NC(=O)CNC(=O)[C@H](CCC(N)=O)NC(=O)C(C)(C)NC(=O)[C@@H](N)Cc1c[nH]cn1)[C@@H](C)O)[C@@H](C)O)C(=O)N[C@@H](C)C(=O)N[C@@H](C)C(=O)N[C@@H](CCCCN)C(=O)N[C@@H](CC(=O)O)C(=O)N[C@@H](Cc1ccccc1)C(=O)N[C@H](C(=O)N[C@@H](CCC(=O)O)C(=O)N[C@@H](Cc1c[nH]c2ccccc12)C(=O)N[C@@H](CC(C)C)C(=O)N[C@@H](CC(C)C)C(=O)N[C@@H](CO)C(=O)N[C@@H](C)C(N)=O)[C@@H](C)CC)C(=O)O` [Compound 4, H-H-Aib-QGTFTSDYSKYLDE-K(Hexadecanoyl-isoGlu)-AAKDFIEWLLSA-NH2] (H-H[Aib]QGTFTSDYSKYLDEK([γGlu-Palmitoyl])AAKDFIEWLLSA-NH2) as the compound, how does the EC50 [1] read?
A: 0.95 nM

Q: What about the EC50 [2] of the same compound?
A: 0.35 nM

Q: And the “AUC (% Ctrl)” value [3]?
A: 65 % Ctrl

Q: Which EC50 [1] does the source give for `CCCCCCCCCCCCCCCC(=O)N[C@@H](CCC(=O)NCCCC[C@H](NC(=O)[C@H](CO)NC(=O)[C@H](CC(=O)O)NC(=O)[C@H](CC(C)C)NC(=O)[C@H](Cc1ccc(O)cc1)NC(=O)[C@H](CCCCN)NC(=O)[C@H](CO)NC(=O)[C@H](Cc1ccc(O)cc1)NC(=O)[C@H](CC(=O)O)NC(=O)[C@H](CO)NC(=O)[C@@H](NC(=O)[C@H](Cc1ccccc1)NC(=O)[C@@H](NC(=O)CNC(=O)[C@H](CCC(N)=O)NC(=O)C(C)(C)NC(=O)[C@@H](N)Cc1c[nH]cn1)[C@@H](C)O)[C@@H](C)O)C(=O)N[C@@H](C)C(=O)N[C@@H](C)C(=O)N[C@@H](Cc1c[nH]cn1)C(=O)N[C@@H](CC(=O)O)C(=O)N[C@@H](Cc1ccccc1)C(=O)N[C@H](C(=O)N[C@@H](CCC(=O)O)C(=O)N[C@@H](Cc1c[nH]c2ccccc12)C(=O)N[C@@H](CC(C)C)C(=O)N[C@@H](CCC(=O)O)C(=O)N[C@@H](CO)C(=O)N[C@@H](C)C(N)=O)C(C)C)C(=O)O` [Compound 5, H-H-Aib-QGTFTSDYSKYLDS-K(Hexadecanoyl-isoGlu)-AAHDFVEWLESA-NH2] (H-H[Aib]QGTFTSDYSKYLDSK([γGlu-Palmitoyl])AAHDFVEWLESA-NH2) here?
A: 0.54 nM

Q: What about the EC50 [2] of the same compound?
A: 0.03 nM

Q: What about the “AUC (% Ctrl)” value [3] of the same compound?
A: 46 % Ctrl

Q: With `CCCCCCCCCCCCCCCC(=O)N[C@@H](CCC(=O)NCCCC[C@H](NC(=O)[C@H](CO)NC(=O)[C@H](CC(=O)O)NC(=O)[C@H](CC(C)C)NC(=O)[C@H](Cc1ccc(O)cc1)NC(=O)[C@H](CCCNC(=N)N)NC(=O)[C@H](CO)NC(=O)[C@H](Cc1ccc(O)cc1)NC(=O)[C@H](CC(=O)O)NC(=O)[C@H](CO)NC(=O)[C@@H](NC(=O)[C@H](Cc1ccccc1)NC(=O)[C@@H](NC(=O)CNC(=O)[C@H](CCC(N)=O)NC(=O)[C@H](CO)NC(=O)[C@@H](N)Cc1c[nH]cn1)[C@@H](C)O)[C@@H](C)O)C(=O)N[C@@H](C)C(=O)N[C@@H](C)C(=O)N[C@@H](CCC(=O)O)C(=O)N[C@@H](CC(=O)O)C(=O)N[C@@H](Cc1ccccc1)C(=O)N[C@H](C(=O)N[C@@H](CCC(=O)O)C(=O)N[C@@H](Cc1c[nH]c2ccccc12)C(=O)N[C@@H](CC(C)C)C(=O)N[C@@H](CC(C)C)C(=O)N[C@@H](CCCNC(=N)N)C(=O)N[C@@H](C)C(N)=O)C(C)C)C(=O)O` [Compound 6, H-HSQGTFTSDYSRYLDS-K(Hexadecanoyl-isoGlu)-AAEDFVEWLLRA-NH2] (H-HSQGTFTSDYSRYLDSK([γGlu-Palmitoyl])AAEDFVEWLLRA-NH2) as the compound, how does the EC50 [1] read?
A: 1.14 nM

Q: And the EC50 [2]?
A: 2.87 nM

Q: What about the “AUC (% Ctrl)” value [3] of the same compound?
A: 50 % Ctrl
